Laboratory results as given in US4476137A, “[1-(2-Benzoxazolyl)hydrazino]alkyl nitrile derivatives” (Abbott Laboratories, priority 1983, dated 1984).

Tested on: dermal Arthus reaction
Test: reverse passive Arthus reaction test (Type III hypersensitivity), reduction of dermal lesion
Type: in vivo, Male Sprague-Dawley rats
Details: 100 mg/kg oral, 30 min before intradermal Anti-B.S.A.; lesion measured four hours later; 4 rats per group
Method: Proc. 35, 774 (1976). Each compound was administered orally to a group of four animals.
The […] passive Arthus reaction test in rats is conducted as follows: Male Sprague-Dawley rats weighing approximately 130-160 g. are used, 4 rats per group. All animals are injected intravenously with 0.5 ml. 0.075% Bovine Serum Albumin (B.S.A.)+2% Evans Blue solution. Each rat then receives an oral dose of drug; one drug is administered per group.
Thirty minutes subsequent to drug dosing, each animal is injected intradermally with 0.05 ml. 1.44% Anti-B.S.A. into the dorsal skin. Four hours later the animals are sacrificed, the dorsal skin reflexed, and the lesion excised. Two perpendicular diameters of each lesion are measured. The average diameters of the lesions from the treated groups are compared with the average diameters from the control group to determine any drug effect.

| Structure (SMILES) | % Inhibition of lesion of dermal Arthus reaction |
| --- | --- |
| N#CCCN(N)c1nc2ccccc2s1 [3-[1-(2-benzthiazolyl)hydrazino]propanenitrile] | 59% |
| CCCCC1C(=O)N(c2ccccc2)N(c2ccccc2)C1=O [Phenylbutazone, reference compound] | inactive |

Same assay, conditions: Rattus norvegicus, 4 h; 100 mg/kg oral, 30 min before intradermal Anti-B.S.A.; lesion measured four hours later; 4 rats per group

| Structure (SMILES) | inhibition in vivo at 100 mg/kg [%] |
| --- | --- |
| Cc1cc2oc(N(N)CCC#N)nc2cc1Cl [3-[1-(6-methyl-5-chloro-2-benzoxazolyl)hydrazino]propanenitrile] | 76 |
| CC(C#N)CN(N)c1nc2ccccc2o1 (stereo not shown) [3-[1-(2-benzoxazolyl)hydrazino]-2-methylpropanenitrile] | 45 |
| N#CCCN(N)c1nc2ccccc2o1 [3-[1-(2-Benzoxazolyl)hydrazino]propanenitrile] | 68 |
| COc1ccc2oc(N(N)CCC#N)nc2c1 [3-[1-(5-methoxy-2-benzoxazolyl)hydrazino]propanenitrile] | 67 |
| Cc1cc2oc(N(N)CCC#N)nc2c(C)c1C [3-[1-(4,5,6-Trimethyl-2-benzoxazolyl)hydrazino]propanenitrile] | 59 |
| Cc1cc(C)c2oc(N(N)CCC#N)nc2c1C [3-[1-(4,5,7-Trimethyl-2-benzoxazolyl)hydrazino]propanenitrile] | 55 |
| N#CCCN(N)c1nc2cc(C#N)ccc2o1 [3-[1-(5-cyano-2-benzoxazolyl)hydrazino]propanenitrile] | 66 |
| Cc1ccc2oc(N(N)CCC#N)nc2c1 [3-[1-(5-methyl-2-benzoxazolyl)hydrazino]propanenitrile] | 70 |
| Cc1ccc2nc(N(N)CCC#N)oc2c1 [3-[1-(6-methyl-2-benzoxazolyl)hydrazino]propanenitrile] | 58 |
| Cc1cc(C)c2oc(N(N)CCC#N)nc2c1 [3-[1-(5,7-dimethyl-2-benzoxazolyl)hydrazino]propanenitrile] | 59 |
| N#CCCN(N)c1nc2cc(C(F)(F)F)ccc2o1 [3-[1-(5-trifluoromethyl-2-benzoxazolyl)hydrazino]propanenitrile] | 48 |
| CC(CC#N)N(N)c1nc2ccccc2o1 (stereo not shown) [3-[1-(2-benzoxazolyl)hydrazino]-3-methylpropanenitrile] | 48 |
| N#CCCN(N)c1nc2cccc(Cl)c2o1 [3-[1-(7-Chloro-2-benzoxazolyl)hydrazino]propanenitrile] | 48 |
| Cc1cccc2nc(N(N)CCC#N)oc12 [3-[1-(7-methyl-2-benzoxazolyl)hydrazino]propanenitrile] | 47 |
| N#CCCN(N)c1nc2cc(CS)ccc2o1 [3-[1-(5-mercaptomethyl-2-benzoxazolyl)hydrazino]propanenitrile] | 40 |
| N#CCCN(N)c1nc2cc(F)ccc2o1 [3-[1-(5-fluoro-2-benzoxazolyl)hydrazino]propanenitrile] | 55 |

Tested on: carrageenin pleurisy
Test: modified carrageenin pleurisy assay (reduction in accumulation of exudate volume and leukocytes)
Type: in vivo
Details: Dose 100 (unit not given)
Text: The anti-inflammatory activity of these compounds was established by using a modification of the carrageenin pleurisy assay described in Vinegar et al. Proc. Soc. Exp. Biol. Med. 143:711 (1973).

| Structure (SMILES) | % Inhibition Cells (leukocyte accumulation) [%] | % Inhibition Volume exudates [%] |
| --- | --- | --- |
| N#CCCN(N)c1nc2ccccc2o1 [3-[1-(2-Benzoxazolyl)hydrazino]propanenitrile] | 39 | 61 |
| CCCCC1C(=O)N(c2ccccc2)N(c2ccccc2)C1=O [Phenylbutazone, reference compound] | 13 | 59 |
